Several values for one entry are separate records, joined by “and”; a condition that tells them apart may be missing. Equal values may be shown once. Entries after “also recorded” stand apart in the source; their conditions may differ. Read-outs that look alike come from different tables or passages of the source. Each block holds one compound with its values, some of them ahead of it. No end group written: not given here. Cys(S-Me) = S-methylated cysteine
What was measured:
thrombin [1] = molecular target: T1, thrombin (Homo sapiens, UniProt P00734); assay: SPR binding of porphyrins to immobilized thrombin; design: human α‐thrombin (HCT‐0020); purchased CellSystems GmbH HCT-0020
Method: (§1) SPR experiments were conducted on a Biacore 8K instrument (Cytiva) to investigate the interaction of PZ with heme, as established before.^[ [19] ^, [35] ^, [37] ^, [43] ^] In brief, PZ (10 µg mL^−1) was dissolved in 10 mM sodium acetate buffer (pH 3.5) and immobilized onto a CM5 sensor chip via standard amine coupling, resulting in a final immobilization level of 767 RU. Heme (stock solution in 30 mM NaOH) was further diluted in running buffer (10 mM HEPES, 150 mM NaCl, and 0.05% Tween 20, pH 7.4). The same was performed with zinc (II) protoporphyrin IX and protoporphyrin IX (Frontier Scientific). Binding kinetics were assessed by injecting seven increasing concentrations of heme (187.5–12,000 nM) in a single‐cycle kinetics format at 25 °C and a flow rate of 30 µL min^−1. Data analysis was performed by global fitting using Biacore Insight Evaluation Software, version 3.0.12.15655 (Cytiva).
Figure S7. Heme binds to thrombin. For SPR analysis, thrombin (10 µg/ml) was dissolved in 10 mM sodium acetate buffer (pH 6.0) and immobilized onto a CM5 sensor chip via standard amine coupling, resulting in a final immobilization level of 1826.1 RU. Binding kinetics were assessed by injecting six increasing concentrations of heme (187.5 – 6,000 nM) in a single-cycle kinetics format at 25°C and a flow rate of […]
transient nature of heme binding to thrombin. […]

Human protein Z (PZ) = molecular target: T2, Human protein Z (PZ) (Homo sapiens, UniProt P22891); assay: SPR binding of porphyrins to immobilized PZ (single-cycle kinetics); settings: tested concentration range 187.5 nM – 12 µM
T2 construct: purchased CellSystems GmbH HCPZ-0220
Method: as §1

[2] = UV/vis spectroscopic interaction studies of PZ-derived peptides with heme; assay type: binding; settings: peptide 10 µM; for heme binding on peptide level: heme 0.4-40 µM; for Kd: read-out: K D (heme-binding affinity of peptide)
Method: Heme binding to PZ‐derived peptides 1 –5 was analyzed by UV/vis spectroscopy, as previously reported for other protein‐derived peptides as well.^[ [18] ^, [19] ^, [35] ^, [43] ^, [44] ^] In brief, each peptide (10 µM) was incubated for 30 min with heme in 100 mM HEPES buffer (pH 7.0) for 30 min. Absorbance spectra were recorded in the range of 300–600 nm on a Infinite 200 Pro spectrophotometer. Difference spectra were generated by subtraction of the single absorbance data of heme and the peptide, respectively, from the data of the heme–peptide complex. Difference spectra were plotted with GraphPad Prism, version 10.5.0. K D values were calculated using the equation from Pîrnău and Bogdan (2008).^[ [45] ^]

PZ = molecular target: T3, PZ (Homo sapiens, UniProt P22891); assay: aPTT-based one-stage clotting assay: anticoagulant function of PZ against FXa in the presence of heme; assay type: biochemical
T3 construct: purchased CellSystems GmbH HCPZ-0220 (PZ); HCXA-0060 (FXa)
Method: To estimate an effect on molecular level, the structure of the PZ–ZPI complex (PDB: 3H5C^[ [42] ^]) was first inspected with heme attached to PZ. The anticoagulant function of PZ was then analyzed in the presence of heme by a one‐stage clotting assay, which was inspired by previous work from us and others.^[ [19] ^, [27] ^] The aPTT‐based assay was performed with the ball coagulometer KC 4 A (Amelung, Lemgo, Germany). PZ (320 nM) was preincubated with different concentrations of heme (0–100 µM) for 30 min in 1x PBS, pH 7.4. Afterward, 50 µL of the PZ–heme mixture was incubated with 50 µL of Actin FSL, 50 µl CaCl2 (30 mM), and 50 µL FXa (0.5 nM) at 37 °C for 3 min. Finally, 50 µL citrated pooled plasma was added and the clotting time was automatically recorded. The following mixtures served as controls: 1) 50 µL PBS‐heme + 50 µL Actin FSL + 50 µL CaCl2 + 50 µL FXa + 50 µL citrated plasma, 2) 50 µL PBS‐heme + 50 µL Actin FSL + 50 µL CaCl2 + 50 µL PBS + 50 µL citrated plasma, 3) 50 µL PZ–heme + 50 µL Actin FSL + 50 µL CaCl2 + 50 µL PBS + 50 µL citrated plasma, 4) 50 µL PZ‐PBS + 50 µL Actin FSL + 50 µL CaCl2 + 50 µL FXa + 50 µL citrated plasma, 5) 50 µL PZ‐PBS + 50 µL Actin FSL + 50 µL CaCl2 + 50 µL PBS + 50 µL citrated plasma, 6) 50 µL PBS + 50 µL Actin FSL + 50 µL CaCl2 + 50 µL FXa + 50 µL citrated plasma, and 7) 50 µL PBS + 50 µL Actin FSL + 50 µL CaCl2 + 50 µL PBS + 50 µL citrated plasma. Final concentrations in the approach were 6 mM CaCl2, 0–20 µM heme, 32 nM and PZ, 0.1 nM FXa. Data were normalized against the clotting time of citrated plasma only (control (7)) and evaluated as the mean of triplicates. The IC50 was determined by fitting the curves with nonlinear regression (GraphPad Prism, version 10.5.0).

[3] = molecular target: PZ-dependent protease inhibitor (ZPI); design: method as in PMID 22786881, PMID 24960590; settings: read-out: K D (PZ interaction with ZPI via peptidase-like domain); cited from earlier work
[4] = Substrate control of the chromogenic assay without thrombin; assay type: biochemical; settings: no thrombin; heme 1 – 1000 nM, PZ 10 nM; thrombin = 100 %
Method: Herein, an earlier established chromogenic thrombin amidolytic activity assay system was thus used, inspired by Hogg and Stenflo.^[ [19] ^, [28] ^] PZ (final concentration: 10 nM) was first incubated for 30 min with different heme concentrations (final concentrations: 1–1000 nM). Afterward, the heme–PZ mixture was incubated with thrombin for 10 min and the PZ–thrombin mixture (50 µL; final thrombin concentration: 15 nM) was transferred onto a 96‐well plate (Greiner Bio‐One GmbH). Finally, 5 µL of the substrate solution (H‐D‐Phe‐Pip‐Arg‐pNA x 2 HCl (S‐2238); final concentration: 273 µM) was added. Immediately, kinetic measurements at 405 nm were started, using an Infinite 200 Pro spectrophotometer. Heme only, thrombin only, and PZ‐heme only served as controls. For evaluation, the thrombin activity was determined as the change of absorbance per second and always normalized against the basal thrombin activity without PZ. Data were analyzed as the mean of triplicate and the IC50 was calculated by nonlinear regression (GraphPad Prism, version 10.5.0). […]
thrombinheme (0 nM)heme (1 nM) thrombin heme (3.16 nM)heme (10 nM)heme (31.6 nM)heme (100 nM)heme (316 nM)heme (1000 nM)PZ+heme (0 nM)PZ+heme (1 nM) PZ+heme (3.16 nM)PZ+heme (10 nM)PZ+heme (31.6 nM)PZ+heme (100 nM)PZ+heme (316 nM)PZ+heme (1000 nM)
Figure S5. […]

thrombin [5] = molecular target: thrombin; design: method as in PMID 2040612; settings: read-out: K D (PZ direct binding to thrombin); cited from earlier work
human α-thrombin = test system: T4, human α-thrombin; assay: Chromogenic thrombin amidolytic activity assay (S-2238); assay type: biochemical
T4 construct: human α‐thrombin (HCT‐0020); purchased CellSystems GmbH HCT-0020
Method: Herein, an earlier established chromogenic thrombin amidolytic activity assay system was thus used, inspired by Hogg and Stenflo.^[ [19] ^, [28] ^] PZ (final concentration: 10 nM) was first incubated for 30 min with different heme concentrations (final concentrations: 1–1000 nM). Afterward, the heme–PZ mixture was incubated with thrombin for 10 min and the PZ–thrombin mixture (50 µL; final thrombin concentration: 15 nM) was transferred onto a 96‐well plate (Greiner Bio‐One GmbH). Finally, 5 µL of the substrate solution (H‐D‐Phe‐Pip‐Arg‐pNA x 2 HCl (S‐2238); final concentration: 273 µM) was added. Immediately, kinetic measurements at 405 nm were started, using an Infinite 200 Pro spectrophotometer. Heme only, thrombin only, and PZ‐heme only served as controls. For evaluation, the thrombin activity was determined as the change of absorbance per second and always normalized against the basal thrombin activity without PZ. Data were analyzed as the mean of triplicate and the IC50 was calculated by nonlinear regression (GraphPad Prism, version 10.5.0).

thrombin [6] = test system: thrombin; design: method as in PMID 2040612; settings: PZ:thrombin ratios of ≈1:9 to ≈5:1; cited from earlier work
[7] = design: method as in PMID 27584039; settings: read-out: K D (PZ interaction with phospholipid surfaces via Gla domain); cited from earlier work
thrombin [8] = molecular target: T1, thrombin; settings: cited from earlier work
ZPI (Homo sapiens) = ZPI (Homo sapiens) (UniProt Q9UK55); settings: cited from earlier work
[9] = 100 mM HEPES pH 7.0, 30 min, stoichiometry 1:1

Sequence of ZPI (Homo sapiens) (Q9UK55 22-444): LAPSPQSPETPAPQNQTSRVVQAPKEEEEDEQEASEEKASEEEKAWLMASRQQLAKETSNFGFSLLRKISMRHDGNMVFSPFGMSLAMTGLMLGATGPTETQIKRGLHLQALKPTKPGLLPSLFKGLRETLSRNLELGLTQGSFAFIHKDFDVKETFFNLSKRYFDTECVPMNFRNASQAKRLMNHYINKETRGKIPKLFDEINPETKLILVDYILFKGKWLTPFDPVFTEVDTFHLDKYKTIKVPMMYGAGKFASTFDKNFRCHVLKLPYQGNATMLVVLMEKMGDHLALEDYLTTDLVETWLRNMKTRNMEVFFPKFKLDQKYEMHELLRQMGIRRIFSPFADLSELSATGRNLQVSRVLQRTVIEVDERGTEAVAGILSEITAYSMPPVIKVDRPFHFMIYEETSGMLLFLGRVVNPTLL

Compound: C=CC1=C(C)c2cc3[nH]c(cc4nc(cc5[nH]c(cc1n2)c(C)c5CCC(=O)O)C(CCC(=O)O)=C4C)c(C)c3C=C [protoporphyrin IX]
Kd (thrombin [1]; heterogeneous ligand model, read-out: KD1 (porphyrin binding to thrombin)): 150 nM
Kd (thrombin [1]; read-out: KD2 (porphyrin binding to thrombin)): 2200 nM
binding to PZ (Human protein Z (PZ)): did not bind

binding to PZ (Human protein Z (PZ)): did not bind
Compound: C=CC1=C(C)c2cc3[n-]c(cc4[n-]c(cc5nc(cc1n2)C(C)=C5C=C)c(C)c4CCC(=O)O)c(CCC(=O)O)c3C.[Zn+2] [zinc protoporphyrin IX]

K D (heme-binding affinity of peptide) [2, 9]: n.b.
heme binding on peptide level [2]: did not bind heme
Compound: AKNEC(Me)HPERT [Peptide 2]

Kd [2, 9]: 1130 ± 500 nM
heme binding on peptide level [2]: bound heme
Compound: C(Me)SLLHRNITVKTYFNRT ({Cys(S-Me)}-SLLHRNITVKTYFNRT) [Peptide 3, PZ-derived peptide around H183/Y191 with methylated cysteine, positions 179 - 195]

Kd [2, 9]: 1040 ± 360 nM
heme binding on peptide level [2]: bound heme
Compound: FWRRYKGGS [Peptide 1]

Kd [2, 9]: 790 ± 360 nM
heme binding on peptide level [2]: bound heme
Compound: IKITHVHVHMRYD [Peptide 4, PZ-derived peptide around H206/H208/H210, positions 202 - 214]

Compound: PZ: Human protein Z, vitamin-K-dependent glycoprotein, anticoagulant cofactor; obtained from CellSystems GmbH
impact alone on the procoagulant function of FXa or on clotting of pure plasma (aPTT) (PZ; controls, heme 0.06 – 20 µM, PZ 32 nM, FXa 0.1 nM): not significantly influenced; also recorded: did not exert any significant impact
effect of PZ on the procoagulant effect of FXa (PZ; without heme): block the procoagulant effect of FXa completely
Kd [3]: ~1 nM
relative amidolytic activity toward substrate S-2238 [4]: ~ 0%
Kd (thrombin [5]): 110 to 150 nM
amidolytic activity of thrombin at highest PZ concentration (human α-thrombin; PZ 1 µM, ratio ≈30:1 PZ:thrombin): ≈ 140%
inhibitory effect toward the amidolytic activity of thrombin (human α-thrombin; PZ:thrombin ratios of 1:15 to 21:1, without heme): ≈ 20% and 20%
remaining amidolytic activity of thrombin (human α-thrombin; PZ:thrombin ratios of 1:30 to ≈10:1, thrombin 30 nM): ≈ 5080%
inhibition of the activity of thrombin in the presence of PZ (thrombin [6]): ≈ 20%
Kd [7]: ~48000 nM

Compound: Protein Z (from UniProt P22891)
Kd (thrombin [8]): 130 nM

Compound: Protein Z peptidase-like domain (from UniProt P22891)
Kd (ZPI (Homo sapiens)): 1 nM

heme binding on peptide level [2]: did not bind heme
Compound: VTREHRGSW [Peptide 5, PZ-derived peptide around H321, positions 317 - 325]

— article PMC12781162, “Human Protein Z as the Second Known Heme‐Binding Protein from the Endogenous Blood Coagulation Inhibitor System” (Chembiochem, 2025)
